pIC50: −log10 of the molar value. The source made the active and inactive calls. No cut-off for these calls is given here. Residues, ends and D or L forms follow the SMILES beside them.
What was measured:
P388 = assay: Cytotoxicity against mouse P388 cells; assay type: functional, cell-based
Bacillus subtilis = assay: Antimicrobial activity against Bacillus subtilis; assay type: functional, organism-based
Candida albicans = assay: Antimicrobial activity against Candida albicans; assay type: functional, organism-based

pIC50 (Bacillus subtilis): 5.81
Structure (SMILES): CC(=O)N[C@@H](Cc1c[nH]c2ccccc12)C(=O)NC(C)(C)C(=O)NC(C)(C)C(=O)N[C@@H](CC(C)C)C(=O)N[C@H](C(=O)N[C@@H](CCC(N)=O)C(=O)NC(C)(C)C(=O)NC(C)(C)C(=O)NC(C)(C)C(=O)N[C@@H](CCC(N)=O)C(=O)N[C@@H](CC(C)C)C(=O)NC(C)(C)C(=O)N1CCC[C@H]1C(=O)N[C@@H](CCC(N)=O)C(=O)N[C@@H](C)CO)C(C)C [CHRYSAIBOL] (HELM PEPTIDE1{[ac].W.[Aib].[Aib].L.V.Q.[Aib].[Aib].[Aib].Q.L.[Aib].P.Q.[C[C@@H](CO)N[*:1]]}$$$$V2.0)
pIC50 (P388): 5.18
Activity (Candida albicans): inactive

From ChEMBL document CHEMBL1156647, “Evolving trends in the dereplication of natural product extracts. 2. The isolation of chrysaibol, an antibiotic peptaibol from a New Zealand sample of the mycoparasitic fungus Sepedonium chrysospermum” (J Nat Prod, 2008)
